{"source": "patent US20240238266A1", "about": "(Novartis AG, priority 2021, published 2024)", "key": {"AP activity (Wieslab)": {"test_system": "AP activity (Wieslab)", "assay": "First in human (FIH) studies: suppression of AP activity (Wieslab)", "type": "in vivo"}, "[1]": {"assay": "Human absorption, distribution, metabolism, and excretion (ADME) study in healthy volunteers", "type": "in vivo"}, "[2]": {"test_system": "organic anion-transporting polypeptide (OATP) hepatic uptake transporter", "assay": "Preclinical studies of systemic disposition: hepatic uptake transporter", "type": "in vitro ADME", "source_text": "In addition, some contribution from direct kidney (approximately 20%) and direct biliary excretion (around 5 to 10%) is anticipated. Iptacopan is also a substrate for the organic anion-transporting polypeptide (OATP) hepatic uptake transporter. […] Typical examples are digoxin, quinidine, paclitaxel, fentanyl and phenytoin. However, if no alternative treatment is available, a staggered dosing approach is recommended (refer to Section 6.2.1.1). • · Concomitant medication listed under exclusion criteria 25 and 26 is prohibited except for the condition specified in the criterion."}, "[3]": {"assay": "Food effect in study CLNP023X2101", "type": "in vivo"}, "AP": {"test_system": "AP", "conditions": "multiple in vitro and in vivo non-clinical studies (Schubart 2019); cited from earlier work"}}}
{"smiles": "CCO[C@H]1CCN(Cc2c(OC)cc(C)c3[nH]ccc23)[C@H](c2ccc(C(=O)O)cc2)C1", "note": "[iptacopan, 4-((2S,4S)-(4-ethoxy-1-((5-methoxy-7-methyl-1H-indol-4-yl)methyl)piperidin-2-yl))benzoic acid]", "values": [{"measurement": "inhibition of the AP (Wieslab assay) predicted by exposure-response model", "setting": "AP activity (Wieslab); about 200 mg b.i.d, in most participants, model developed with FIH data in healthy volunteers", "value": "> 90", "unit": "%"}, {"measurement": "suppression of the AP (inhibition), sustained", "setting": "AP activity (Wieslab); over 14 days of dosing at 200 mg b.i.d", "value": "≥ 80", "unit": "%"}, {"measurement": "inhibition of AP activity (Wieslab)", "setting": "AP activity (Wieslab); two hours post-dose, single dose of 200 mg, FIH study participants", "value": "≥ 80", "unit": "%"}, {"measurement": "direct kidney excretion, share of overall iptacopan dose", "setting": "[1]", "value": "20-25%"}, {"measurement": "kidney contribution to the overall iptacopan clearance", "setting": "[1]", "value": "20-25%"}, {"measurement": "substrate of OATP hepatic uptake transporter", "setting": "[2]", "value": "substrate"}, {"measurement": "food effect", "setting": "[3]", "value": "no food effect"}, {"measurement": "inhibition of the AP", "setting": "AP", "value": "demonstrated inhibition of the AP"}]}
